Entries after “also recorded” stand apart in the source; their conditions may differ.
Columns and labels:
[1] = target: T1, CatC (Homo sapiens, UniProt P53634); conditions: only at high concentrations; cited from earlier work
[2] = target: T1, CatC; test: E-64 inhibition of CatC activity; format: biochemical; conditions: compared with literature ~500 μM
[3] = system: cathepsin L (CatL); test: cathepsin L in 50 mM acetate buffer pH 5 with 1 mM EDTA and 1 mM DTT; conditions: up to 8 hours
[4] = system: cathepsin F; test: 50 mM acetate buffer pH 5 with 1 mM EDTA and 1 mM DTT; conditions: up to 24 hours
[5] = system: cathepsin A (CatA); test: cathepsin A; conditions: 37°C, up to 8 hours
[6] = system: cathepsin H (CatH); test: cathepsin H in 50 mM acetate buffer pH 5 with 1 mM EDTA and 1 mM DTT; conditions: up to 24 hours
[7] = system: cathepsin F (CatF); test: cathepsin F in 50 mM acetate buffer pH 5 with 1 mM EDTA and 1 mM DTT; conditions: up to 24 hours
[8] = system: cathepsin C (CatC); test: cathepsin C; conditions: 37°C, up to 24 hours
[9] = system: cathepsin B (CatB); test: cathepsin B in 50 mM acetate buffer pH 5 with 1 mM EDTA and 1 mM DTT; conditions: up to 8 hours

T1 sequence (P53634 25-134 limits assumed): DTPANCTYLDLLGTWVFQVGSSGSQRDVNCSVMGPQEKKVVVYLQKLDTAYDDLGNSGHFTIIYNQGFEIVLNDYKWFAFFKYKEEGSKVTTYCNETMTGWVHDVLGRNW
T1 sequence (P53634 231-394 limits assumed): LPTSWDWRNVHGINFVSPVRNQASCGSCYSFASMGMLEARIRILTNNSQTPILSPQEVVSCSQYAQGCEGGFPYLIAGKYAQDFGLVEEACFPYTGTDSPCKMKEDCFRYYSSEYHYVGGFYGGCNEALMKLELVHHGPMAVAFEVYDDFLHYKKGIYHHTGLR
T1 sequence (P53634 395-463 limits assumed): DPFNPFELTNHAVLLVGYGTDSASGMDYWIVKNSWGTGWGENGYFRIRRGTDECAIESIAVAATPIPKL

Row | Compound | fragment found [3] | fragment found [5] | fragment found [6] | not cleaved [7] | not cleaved [8] | fragment found [9] | not cleaved [9] | other results
1 | CC(C)C[C@H](NC(=O)[C@H]1O[C@@H]1C(=O)O)C(=O)NCCCCN=C(N)N (relative stereo) [E-64, L-trans-Epoxysuccinyl-leucylamido(4-guanidino) butane] | – | – | – | – | – | – | – | concentration at which E-64 inhibits CatC [1]: ~ 500 μM; E-64 inhibition of CatC activity observed by the authors [2]: activity inhibition at much-reduced concentration
2 | AKAKTDHGAEIVYK | IVYK and TDHGAEIVY and HGAEIVYK and GAEIVYK and AKTDHGAEIVYK and AKAKTDHGAEIVY | AKAKTDHGAEIVY, 0.5h; also recorded: AKAKTDHGAEIV; also recorded: AKAKTDHGAEI; also recorded: KTDHGAEIV; also recorded: AKTDHGAEIV; also recorded: KTDHGAEI; also recorded: AKTDHGAEI | TDHGAEIVYK; also recorded: DHGAEIVYK | no proteolytic digestion | – | – | – | not cleaved [4]: no proteolytic digestion; fragment found [8]: TDHGAEIVYK
3 | AKAKTDHGAEIVYK (D-Asp variant) | IVYK and AKTDHGAEIVYK and AKAKTDHGAEIVY | AKAKTDHGAEIVY, 0.5h; also recorded: AKAKTDHGAEIV; also recorded: AKAKTDHGAEI | TDHGAEIVYK | no proteolytic digestion | no TDHGAEIVYK after 24 h | – | – | –
4 | AKAKTDHGAEIVYK (D-isoAsp variant) | IVYK and AKTDHGAEIVYK and AKAKTDHGAEIVY | AKAKTDHGAEIVY, 0.5h; also recorded: AKAKTDHGAEIV; also recorded: AKAKTDHGAEI | TDHGAEIVYK | no proteolytic digestion | no TDHGAEIVYK after 24 h | – | – | fragment found [8]: IVYK
5 | AKAKTDHGAEIVYK (L-isoAsp variant) | AKAKTDHGAEIVY and IVYK and AKTDHGAEIVYK | AKAKTDHGAEIVY, 0.5h; also recorded: AKAKTDHGAEIV; also recorded: AKAKTDHGAEI | TDHGAEIVYK | – | no TDHGAEIVYK after 24 h | – | – | –
6 | SEMRLEKDRFSVNL | – | – | – | – | – | SEMRLEKDRF and SEMRLEKDR and LEKDRF and EKDRF and KDRF | – | fragment found [7]: SEMRLE; also recorded: KDRFSVNL; also recorded: SEMR, minor, longer time-points
7 | SEMRLEKDRFSVNL (D-Asp variant) | – | – | – | – | – | SEMRLEKDRF; also recorded: SEMRLEKDR | no cleavage C-terminal to isomerized Asp | –
8 | SEMRLEKDRFSVNL (D-isoAsp variant) | – | – | – | – | – | SEMRLEKDRF; also recorded: SEMRLEKDR | no cleavage C-terminal to isomerized Asp | –
9 | SEMRLEKDRFSVNL (L-isoAsp variant) | – | – | – | – | – | SEMRLEKDRFS and SEMRLEKDRF and SEMRLEKDR and KDRF | no cleavage C-terminal to isomerized Asp | –
